Here are results for one molecule from US10973810B2, “Methods for the treatment of neurological disorders” (Yumanity Therapeutics, Inc., priority 2017, dated 2021).

Structures are written as SMILES.

Holding throughout (assay type): cell-based
In test [1] the target is T1, human SCD1 (Homo sapiens, UniProt O00767).
T1 construct: host or cells: S. cerevisiae ole1Δ strain (W303 pdr1Δ pdr3Δ background), plasmid pRS316 with TDH3 promoter and CYC1 terminator
T1 sequence (O00767 1-359): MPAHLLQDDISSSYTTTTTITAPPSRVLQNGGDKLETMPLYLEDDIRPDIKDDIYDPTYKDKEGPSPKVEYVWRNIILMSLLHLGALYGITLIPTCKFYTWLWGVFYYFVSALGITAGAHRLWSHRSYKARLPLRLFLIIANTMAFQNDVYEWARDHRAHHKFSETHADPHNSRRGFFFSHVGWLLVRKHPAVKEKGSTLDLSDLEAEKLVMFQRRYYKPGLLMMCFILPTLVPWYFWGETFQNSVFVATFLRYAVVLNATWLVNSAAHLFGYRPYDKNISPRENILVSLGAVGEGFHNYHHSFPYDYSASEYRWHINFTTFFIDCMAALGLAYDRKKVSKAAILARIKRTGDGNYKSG
In words: Growth of humanized yeast surviving solely on human SCD1. Particulars: growth inhibition. From the text: The coding sequence of yeast OLE1 was also cloned into this plasmid). These clones were then transformed into the ole1d strain and plated on CSM-Ura media (CSM lacking uracil) with 2% glucose (w/v) and independent colonies were isolated and amplified.
For experiments using a plasmid-borne copy of Ole1, SCD1, or SCD5 (FIGS. 3B, 6, and 7), media lacking uracil (SX-Ura, where X is glucose, raffinose, or galactose), was used for all steps of the compound profiling protocol to ensure its maintenance throughout the assay.
After yeast delivery, assay plates were incubated under humidified conditions at 30° C. for 24 to 40 h. ApoE4 rescue experiments were stopped at 24 h, aSyn experiments at 40 h, Ole1 at 24 h, and SCD1/SCD5 at 40 h. The growth of yeast was monitored by reading the OD600 of each well using a microplate reader (Perkin Elmer EnVision™).

The test system of test [2] is human iPSC-derived neurons harboring the alpha-synuclein A53T mutation. Description: Neuron survival assay, human iPSC-derived neurons harboring the alpha-synuclein A53T mutation. Particulars: 100 nM and 30 nM; relative to DMSO controls in A53T neurons; 8 to 10 d. On the procedure: FIG. 15 is a graph showing that SCD inhibition with CAY10566 reduced the cumulative risk of death in human iPSC-derived neurons harboring the alpha-synuclein A53T mutation. Human iPSC cells harboring the alpha-synuclein A53T mutation or an isogenic control line in which the mutation was corrected to wild-type were trans-differentiated into neurons. Single cells were evaluated for survival (based on overall morphology) over the course of the 192 hour study. Cell survival data was analyzed by a non-parametric Kaplan-Meier procedure to estimate survival probability, which is shown as the cumulative risk of cell death. (HR, hazard ratio; P, p value (*<0.05, ns=not significant (>0.05)); CI, confidence interval; N, number of neurons tracked). […]
Transfected neuronal cultures were imaged at 12-24 h intervals for the indicated number of days by robotic microscopy. Fluorescence images were acquired with a Nikon Eclipse Ti microscope equipped with a motorized stage, 20× extra-long working distance (ELWD) objective, and an Andor Zyla cMOS camera. […] Images were processed and analyzed with custom-made scripts in R and ImageJ software. The lifetimes of individual neurons were determined by tracking fluorescently-labeled neurons in ImageJ. Neuronal death was determined to occur upon incidence of RFP signal loss or rupture of cell body. […]

The test system of test [3] is A53T α-synuclein transfected human iPSC-derived neurons. Description: Neuron survival, A53T α-synuclein transfected human iPSC-derived neurons. The settings on record: all tested concentrations (3 μM to 0.3 μM); relative to DMSO controls. On the procedure:
FIG. 16 is a graph illustrating that non-selective SCD reference inhibitor, CAY10566, reduces risk of death in A53T α-synuclein transfected human iPSC-derived neurons. Human iPSC-derived neurons were co-transfected with a fluorescence reporter plasmid encoding RFP (morphology tracer) and control plasmid (empty) or plasmid containing α-synuclein-A53T mutation (syn-A53T). Neuron groups as indicated were treated with either DMSO or CAY10566 at the indicated doses. The lifetimes of single neurons were tracked over time based on either loss of RFP fluorescence signal or morphological indicators of neuron death such as loss of neurites or cell blebbing. […] Cox proportional hazard analysis was used to estimate relative risk of death, or hazard ratio (HR) and the P value was determined by the logrank test. […]
FIG. 17 is a graph illustrating that an SCD5-selective inhibitor reduces risk of death in A53T α-synuclein transfected human iPSC-derived neurons. Human iPSC-derived neurons were co-transfected with a fluorescence reporter plasmid encoding RFP (morphology tracer) and control plasmid (empty) or plasmid containing α-synuclein-A53T mutation (syn-A53T). […] The lifetimes of single neurons were tracked over time based on either loss of RFP fluorescence signal or morphological indicators of neuron death such as loss of neurites or cell blebbing. […]

For `Cc1nnc(-c2ccc(N3CCC(Oc4cc(F)ccc4Cl)CC3)nn2)o1` [CAY10566], the “half-maximal inhibitory concentration (IC50), SCD1 humanized strain” value in test [1] was “low nanomolar”. Moreover, the “risk of neuron death” value in test [2] and in test [3] was “significantly reduced” in each case.
